The source of these data is PubChem BioAssay (NCI).

Each structure is given as a SMILES string.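 Briefly, cells in 96-well plates were exposed to five compound concentrations for 48 h, and endpoints were estimated by linear interpolation. The concentration for 50% growth inhibition is given as GI50. TGI marks complete inhibition of growth.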

Common to all, as to assay: inhibition of tumour cell growth, NCI panel, 48 h
Test [1] deals with 786-0 renal.
Test [2] has as its system BT-549 breast.
Test [3] deals with EKVX NSCLC.
Test [4] deals with HL-60(TB) leukemia.
Test [5] relates to HOP-62 NSCLC.
Test [6] relates to KM12 colon.
Test [7] deals with NCI-H460 lung.
Test [8] has as its system NCI-H522 lung.
Test [9] relates to SK-MEL-5 melanoma.
The subject of test [10] is SR leukemia.

Turning to `c1ccc2[nH]c(-c3ccc(OCCCCCOc4ccc(-c5nc6ccccc6[nH]5)cc4)cc3)nc2c1`, the GI50 is 2.28 µM in test [1]; 2.33 µM in [2]; 14.8 µM in test [3]; 1.28 µM in [4]; 2.23 µM in test [5]; 1.54 µM in test [6]. For the same molecule, the GI50 in [7] is 1.6 µM; in [8] it was 2.29 µM; in [9], 1.15 µM; in test [10], 0.241 µM. The TGI was 5.92 µM in test [1]; 5.58 µM in test [2]; greater than 70.4 µM in test [3]; 3.29 µM in [4]; 5.15 µM in [5]; 4.17 µM in test [6]. For the same molecule, the TGI in [7] is greater than 100 µM; in [8], 6.62 µM; in test [9], 4.94 µM; in test [10] it was 0.721 µM.

For `O=C(Nc1ccc(Nc2ccncc2)cc1)c1ccc(Nc2ccnc3ccc([N+](=O)[O-])cc23)cc1`, the GI50 in test [1], in [2], in test [3], in test [4], in test [5] and in test [6] was greater than 100 µM in each case. Further, the GI50 in [7] is 6.27 µM; in test [8], greater than 100 µM; in test [9], 71.4 µM; in test [10], 7.53 µM. Moreover, the TGI in test [1], in test [2], in test [3], in [4], in [5] and in [6] was greater than 100 µM each time. For the same molecule, the TGI in test [7], in test [8], in test [9] and in [10] was greater than 100 µM each time.

Take `COc1cc2c(OC)c(c1)CCCC1=CC(=O)C=C(CCC2)C1=O`: the TGI in test [1] is greater than 55.1 µM; in test [2], 92.3 µM; in [3], greater than 87.4 µM; in test [4], 24.6 µM; in test [5], greater than 100 µM; in test [6], 59.6 µM. Further, the TGI is greater than 100 µM in [7], 46.2 µM in test [8], greater than 100 µM in [9] and greater than 56.5 µM in test [10].

On to `NC(=NC1CCCCCC1)c1ccc(N2CCN(c3ccc(C(N)=NC4CCCCCC4)cc3)CC2)cc1`, for which the GI50 in test [1] was 10.7 µM; in test [2], 2.1 µM; in test [3], 1.44 µM; in test [4] it was 14.1 µM; in [5], 8.48 µM; in test [6], 8.35 µM. Besides, the GI50 in test [7] was 3.65 µM; in test [8], 5.42 µM; in [9] it was 1.33 µM; in [10], 6.64 µM. The TGI in test [1] was 43.9 µM; in test [2], 5.48 µM; in test [3], 23 µM; in test [4], greater than 50 µM; in [5], 22.6 µM; in [6], 30.2 µM. For the same molecule, the TGI in test [7] amounted to 16.8 µM; in test [8], 23.9 µM; in test [9] it was 6.76 µM; in [10] it was 19.8 µM.

On to `COc1ccc(/C=C(\C#N)c2cc(OC)c3c(c2)OCO3)cc1`, for which the GI50 in [1] is less than 0.0215 µM; in [2], 0.0657 µM; in test [3] it was 1.98 µM; in [4] it was 0.0128 µM; in test [5], less than 0.0125 µM; in [6], less than 0.01 µM. Moreover, the GI50 in [7] is less than 0.01 µM; in test [8], less than 0.01 µM; in test [9], 0.0101 µM; in [10], less than 0.01 µM. Moreover, the TGI was 17.2 µM in test [1]; 83.2 µM in test [2]; greater than 100 µM in test [3]; 54.7 µM in [4]; 24.1 µM in [5]; 1.66 µM in test [6]. Also, the TGI in [7] was 4.28 µM; in test [9], 0.245 µM; in [10] it was greater than 100 µM.

Regarding `NC1CCC[C@@H](O)[C@H]1O` (stereo not given in full), the TGI in [1], in test [2], in test [3], in test [4], in [5] and in test [6] was greater than 100 µM each time. The TGI in test [7], in [8], in [9] and in [10] was greater than 100 µM each time.

Turning to `Cn1c2ccc([N+](=O)[O-])cc2c(=O)c2c(O)cc(O)cc21`, the TGI in test [1] is 47 µM; in [2], greater than 100 µM; in test [3] it was greater than 100 µM; in test [4], greater than 100 µM; in [6], greater than 100 µM; in [7] it was greater than 100 µM. In addition, the TGI in test [8] is 24 µM; in test [9] it was greater than 100 µM; in test [10], greater than 100 µM.

With `CCc1nc2ccc(Cc3ccc(C(=O)NO)cc3)cc2c(=O)n1CCc1ccccc1`, the GI50 in test [1] is 1.71 µM; in test [2], 1.73 µM; in test [3] it was 1.21 µM; in [4], 2.25 µM; in test [5] it was 1.32 µM; in test [7], 0.52 µM. Moreover, the GI50 is 0.302 µM in test [8], 0.822 µM in test [9] and 0.784 µM in test [10]. Besides, the TGI in test [1] was determined as 3.41 µM; in [2] it was 4.79 µM; in test [3], 3.14 µM; in test [4], 83.1 µM; in test [5], 2.86 µM; in test [7] it was 2.07 µM. Moreover, the TGI in [8] stood at 1.68 µM; in test [9] it was 2.1 µM; in [10], 61 µM.

In the case of `Cc1ccc2c(=O)[nH]sc2c1`, the TGI in test [1] was 15.4 µM; in test [2], 30 µM; in [3] it was 30.6 µM; in [4] it was 30.8 µM; in test [5], 36.7 µM; in test [7], greater than 100 µM. Besides, the figures for the TGI in [8], in test [9] and in test [10] were 8.26 µM, 25.6 µM and 18.7 µM, respectively.
